Among the data in patent US20190275012A9, “SUBSTITUTED THIAZOLO-PYRIDINE COMPOUNDS AS MALT1 INHIBITORS” (Lupin Limited, priority 2016, published 2019) are IC50 values, retold here.

In experiment [1] the target is T1, full length MALT1 enzyme (Homo sapiens, UniProt Q9UDY8).
T1 construct: a fluorescence based assay with full length MALT1 enzyme
T1 sequence (Q9UDY8 1-824): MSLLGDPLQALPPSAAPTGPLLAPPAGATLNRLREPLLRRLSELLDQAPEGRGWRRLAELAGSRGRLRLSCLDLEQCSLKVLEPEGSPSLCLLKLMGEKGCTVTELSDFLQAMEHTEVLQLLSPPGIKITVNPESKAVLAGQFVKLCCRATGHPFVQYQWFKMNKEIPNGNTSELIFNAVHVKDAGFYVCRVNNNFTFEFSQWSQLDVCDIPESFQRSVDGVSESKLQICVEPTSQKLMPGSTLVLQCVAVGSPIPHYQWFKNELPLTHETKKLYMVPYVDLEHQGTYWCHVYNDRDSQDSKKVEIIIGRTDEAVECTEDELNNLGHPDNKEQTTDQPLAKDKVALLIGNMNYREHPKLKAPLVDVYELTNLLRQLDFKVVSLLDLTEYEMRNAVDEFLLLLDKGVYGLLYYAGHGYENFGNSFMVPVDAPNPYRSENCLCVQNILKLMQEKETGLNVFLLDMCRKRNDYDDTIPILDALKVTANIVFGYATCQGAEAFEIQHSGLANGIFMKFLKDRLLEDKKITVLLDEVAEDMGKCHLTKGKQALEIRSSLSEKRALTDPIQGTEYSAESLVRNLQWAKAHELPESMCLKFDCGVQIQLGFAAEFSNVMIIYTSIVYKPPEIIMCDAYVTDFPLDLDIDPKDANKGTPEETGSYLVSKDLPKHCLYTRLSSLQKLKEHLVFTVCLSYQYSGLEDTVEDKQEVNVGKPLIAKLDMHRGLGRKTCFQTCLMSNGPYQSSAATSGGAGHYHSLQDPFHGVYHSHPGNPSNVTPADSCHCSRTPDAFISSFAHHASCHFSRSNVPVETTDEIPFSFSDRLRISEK
In words: MALT1 biochemical assay (fluorescence based, Ac-Leu-Arg-Ser-Arg-AMC cleavage). The following applies: full length MALT1 protein, 2 h pre-incubation at RT, tetrapeptide substrate Ac-Leu-Arg-Ser-Arg-AMC, read-out: Malt 1 inhibition IC50. Summed up: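 Full-length MALT1 (100-300 ng/well) was pre-incubated with compound for 2 h at RT, then 100 μM Ac-LRSR-AMC was added for 4-12 h. Buffer was 50 mM MES, 150 mM NaCl, 0.1% CHAPS, 1 M ammonium citrate, 10 mM DTT, pH 7, with 0.5% DMSO. IC50 was derived from AMC fluorescence (ex 360/em 460 nm).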

The test system of experiment [2] is NF-kB transcriptional activity in HEK-293-NF-kB-Luc cell line overexpressing MALT1. Kind of experiment: NF-kB reporter assay (luciferase, MALT1 stably overexpressed). The format is cell-based. The following applies: Homo sapiens, 24 h, HEK-293-NF-kB-Luc cells stably overexpressing MALT1, 24 h treatment, Bright Glo luminescence; read-out: NF-kB inhibition IC50. Summed up:
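HEK-293-NF-κB-Luc cells stably overexpressing MALT1 were seeded overnight, then exposed to test compounds for 24 h. Bright Glo added 10 min at ambient temperature and luminescence read; % inhibition calculated against 0.1% DMSO controls.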

For experiment [3], the system named is OCI-Ly-10 cells. In words: Anticancer assay (14 days), cell viability by CCK-8. It counts as cell-based. The following applies: Homo sapiens, OCI-Ly10, 336 h, 14 days treatment, fresh treatment every 5th day, CCK-8 viability, read-out: Ly-10 (14d) inhibition IC50. Summed up:
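OCI-Ly-10 cells in IMDM + 20% FBS exposed to compound for 13–15 days, with media and compound refreshed every 5th day. Viability by CCK-8 absorbance at 450 nm (650 nm background); % inhibition versus 0.1% DMSO medium control.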

Take `COC(C)(c1c(NC(=O)Nc2ccc(-n3nccn3)c(C(F)(F)F)c2)cnc2sc(C)nc12)C1CC1` (single isomer, unassigned) [Compound 94b, 1-(4-(2H-1,2,3-triazol-2-yl)-3-(trifluoromethyl)phenyl)-3-(7-(1-cyclopropyl-1-methoxyethyl)-2-methylthiazolo[5,4-b]pyridin-6-yl)urea]: the figures for the IC50 in experiment [1], in experiment [2] and in experiment [3] were 1 to 50 nM, 1 to 100 nM and 26 to 100 nM, respectively.
The matching figures for `COC(c1c(NC(=O)Nc2cnc(-n3nccn3)c(C(F)(F)F)c2)cnc2sc(C)nc12)C(F)(F)F` (single isomer, unassigned) [Compound 95b, 1-(6-(2H-1,2,3-triazol-2-yl)-5-(trifluoromethyl)pyridin-3-yl)-3-(2-methyl-7-(2,2,2-trifluoro-1-methoxyethyl)thiazolo[5,4-b]pyridin-6-yl)urea]: 1 to 50 nM, 1 to 100 nM and 0.1 to 25 nM.
`COC(C)c1c(NC(=O)Nc2ccc(-n3nccn3)c(C(F)(F)F)c2)cnc2sc(C)nc12` (single isomer, unassigned) [Compound 143b, 1-(4-(2H-1,2,3-Triazol-2-yl)-3-(trifluoromethyl)phenyl)-3-(7-(1-methoxyethyl)-2-methylthiazolo[5,4-b]pyridin-6-yl)urea]: the IC50 was in the range of 1 to 50 nM in experiment [1], 1 to 100 nM in experiment [2] and 0.1 to 25 nM in experiment [3].
The matching figures for `COC(c1c(NC(=O)Nc2ccc(-n3nccn3)c(Cl)c2)cnc2sc(C)nc12)C1CC1` (single isomer, unassigned) [Compound 144b, 1-(3-Chloro-4-(2H-1,2,3-triazol-2-yl)phenyl)-3-(7-(cyclopropyl(methoxy)methyl)-2-methylthiazolo[5,4-b]pyridin-6-yl)urea]: 1 to 50 nM, 1 to 100 nM and 0.1 to 25 nM.
The matching figures for `CCC(OC)c1c(NC(=O)Nc2cnc(-n3nccn3)c(Cl)c2)cnc2sc(C)nc12` (single isomer, unassigned) [Compound 145b, 1-(5-Chloro-6-(2H-1,2,3-triazol-2-yl)pyridin-3-yl)-3-(7-(1-methoxypropyl)-2-methylthiazolo[5,4-b]pyridin-6-yl)urea]: 1 to 50 nM, 1 to 100 nM and 0.1 to 25 nM.
The matching figures for `CCC(OC)c1c(NC(=O)Nc2ccc(-n3nccn3)c(C(F)(F)F)c2)cnc2sc(C)nc12` (single isomer, unassigned) [Compound 147b, 1-(4-(2H-1,2,3-Triazol-2-yl)-3-(trifluoromethyl)phenyl)-3-(7-(1-methoxypropyl)-2-methylthiazolo[5,4-b]pyridin-6-yl)urea]: 1 to 50 nM, 1 to 100 nM and 0.1 to 25 nM.
`COC(c1c(NC(=O)Nc2ccc(-n3nccn3)c(C(F)(F)F)c2)cnc2sc(C)nc12)C1CC1` (single isomer, unassigned) [Compound 153b, 1-(4-(2H-1,2,3-Triazol-2-yl)-3-(trifluoromethyl)phenyl)-3-(7-(cyclopropyl(methoxy)methyl)-2-methylthiazolo[5,4-b]pyridin-6-yl)urea]: the IC50 was 1 to 50 nM in experiment [1], 1 to 100 nM in experiment [2] and 26 to 100 nM in experiment [3].
The matching figures for `COC(C)c1c(NC(=O)Nc2ccc(-n3nccn3)c(Cl)c2)cnc2sc(C)nc12` (single isomer, unassigned) [Compound 158b, 1-(3-Chloro-4-(2H-1,2,3-triazol-2-yl)phenyl)-3-(7-(1-methoxyethyl)-2-methylthiazolo[5,4-b]pyridin-6-yl)urea]: 1 to 50 nM, 1 to 100 nM and 0.1 to 25 nM.
Consider `CCOC(C)c1c(NC(=O)Nc2cnc(-n3nccn3)c(C(F)(F)F)c2)cnc2sc(C)nc12` (single isomer, unassigned) [Compound 165b, 1-(6-(2H-1,2,3-Triazol-2-yl)-5-(trifluoromethyl)pyridin-3-yl)-3-(7-(1-ethoxyethyl)-2-methylthiazolo[5,4-b]pyridin-6-yl)urea], for which the results for the half-inhibitory concentration (IC50) in experiment [1], in experiment [2] and in experiment [3] were 1 to 50 nM, 1 to 100 nM and 26 to 100 nM, respectively.
For `COC(C)c1c(NC(=O)Nc2cc(-n3nccn3)cc(C(F)(F)F)c2)cnc2sc(C)nc12` (single isomer, unassigned) [Compound 217b, (S) or (R)-1-(3-(2H-1,2,3-triazol-2-yl)-5-(trifluoromethyl)phenyl)-3-(7-(1-methoxyethyl)-2-methylthiazolo[5,4-b]pyridin-6-yl)urea], the IC50 was 51 to 100 nM in experiment [1], 1 to 100 nM in experiment [2] and 251 to 500 nM in experiment [3].
For `COc1ncc(NC(=O)Nc2cnc3sc(C)nc3c2C2CC2)cc1Cl` [Compound 1, 1-(5-Chloro-6-methoxypyridin-3-yl)-3-(7-cyclopropyl-2-methylthiazolo [5,4-b]pyridin-6-yl)urea], in that order: 1 to 50 nM, 1 to 100 nM and 101 to 250 nM.
The matching figures for `COc1ccc(NC(=O)Nc2cnc3sc(C)nc3c2C2CC2)cc1Cl` [Compound 2, 1-(3-Chloro-4-methoxyphenyl)-3-(7-cyclopropyl-2-methylthiazolo[5,4-b]pyridin-6-yl)urea]: 1 to 50 nM, 501 to 1500 nM and 251 to 500 nM.
The matching figures for `Cc1nc2c(C3CC3)c(NC(=O)Nc3cnc(-n4nccn4)c(Cl)c3)cnc2s1` [Compound 9, 1-(5-Chloro-6-(2H-1,2,3-triazol-2-yl)pyridin-3-yl)-3-(7-cyclopropyl-2-methylthiazolo[5,4-b]pyridin-6-yl)urea]: 1 to 50 nM, 1 to 100 nM and 26 to 100 nM.
`CCc1c(NC(=O)Nc2cnc(OC)c(Cl)c2)cnc2sc(C)nc12` [Compound 26, 1-(5-Chloro-6-methoxypyridin-3-yl)-3-(7-ethyl-2-methylthiazolo[5,4-b]pyridin-6-yl)urea]: the IC50 in experiment [1] fell in the range of 1 to 50 nM; in experiment [2], 101 to 500 nM; in experiment [3], 101 to 250 nM.
For `Cc1nc2c(N3CCOCC3)c(NC(=O)Nc3cnc(-n4nccn4)c(Cl)c3)cnc2s1` [Compound 28, 1-(5-Chloro-6-(2H-1,2,3-triazol-2-yl)pyridin-3-yl)-3-(2-methyl-7-morpholinothiazolo[5,4-b]pyridin-6-yl)urea], in that order: 1 to 50 nM, 101 to 500 nM and 501 to 1500 nM.
The matching figures for `COCCN(c1c(NC(=O)Nc2cnc(-n3nccn3)c(Cl)c2)cnc2sc(C)nc12)C1CC1` [Compound 49, 1-(5-Chloro-6-(2H-1,2,3-triazol-2-yl)pyridin-3-yl)-3-(7-(cyclopropyl(2-methoxyethyl)amino)-2-methylthiazolo[5,4-b]pyridin-6-yl)urea]: 1 to 50 nM, 1 to 100 nM and 26 to 100 nM.
The matching figures for `Cc1nc2c(C3=CCCCC3)c(NC(=O)Nc3cnc(-n4nccn4)c(Cl)c3)cnc2s1` [Compound 59, 1-(5-Chloro-6-(2H-1,2,3-triazol-2-yl)pyridin-3-yl)-3-(7-(cyclohex-1-en-1-yl)-2-methylthiazolo[5,4-b]pyridin-6-yl)urea]: 1 to 50 nM, 101 to 500 nM and 26 to 100 nM.
Regarding `COC(C)(C)c1c(NC(=O)Nc2cnc(-n3nccn3)c(C(F)(F)F)c2)cnc2sc(C)nc12` [Compound 96, 1-(6-(2H-1,2,3-Triazol-2-yl)-5-(trifluoromethyl)pyridin-3-yl)-3-(7-(2-methoxypropan-2-yl)-2-methylthiazolo[5,4-b]pyridin-6-yl)urea], the results for the IC50 in experiment [1], in experiment [2] and in experiment [3] were 1 to 50 nM, 1 to 100 nM and 0.1 to 25 nM, respectively.
